Experimental data from the METLIN SMRT retention time set (Domingo-Almenara et al. 2019).

Test: gradient 5% acetonitrile 3 min, to 50% in 2 min, to 85% in 15 min, held 3 min, 100 µL/min
Settings: column: Zorbax Extend-C18 2.1 x 50 mm; eluents: water / acetonitrile, 0.1% formic acid
Outline: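 Using water and acetonitrile that each contained 0.1% formic acid, mixtures of ~100 pure standards were separated at 100 μL/min on a Zorbax Extend-C18 column (2.1 × 50 mm, 1.8 μm). The HPLC fed a quadrupole time-of-flight mass spectrometer working in positive and negative ionization mode, with dead and dwell volumes of 40 μL and 900 μL. Data were acquired over 3 months. Retention time was read from computationally picked adduct peaks after manual inspection of each.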

SMILES: Cc1cc(=O)n(CCc2ccccc2)c(N2CCSCC2)n1
- RP-LC retention time: 897 s

SMILES: CCn1c(=O)c(N2CCC(NC(=O)Nc3ccc4c(c3)OCCO4)CC2)nc2ccccc21
- RP-LC retention time: 838 s

SMILES: CCCC(=O)NCc1c(-c2ccccc2)nc2n1CCS2
- RP-LC retention time: 604 s

SMILES: COc1ccccc1Nc1c(-c2cccc(O)c2)nc2cnccn12
- RP-LC retention time: 681 s

SMILES: COc1cccc(CNC(=O)C2(C)CCCN(C(=O)Nc3cc(OC)cc(OC)c3)C2)c1 (stereo not given)
- RP-LC retention time: 844 s

SMILES: O=S(=O)(NCC1(c2ccc(F)cc2)CC1)c1ccc2c(c1)OCCO2
- RP-LC retention time: 918 s

SMILES: CCCN1C(=O)c2cc(S(=O)(=O)N(C)Cc3ccccc3)ccc2Oc2cccnc21
- RP-LC retention time: 1190 s

SMILES: Cc1oc(-c2[nH]ncc2C(=O)N(C)C)cc1S(=O)(=O)Nc1ccc(F)c(Cl)c1
- RP-LC retention time: 740 s

SMILES: COc1ccc(-c2c(C)noc2NC(C)=O)cc1S(=O)(=O)Nc1ccccc1F
- RP-LC retention time: 783 s

SMILES: O=C(Nc1ccccc1)C1CCCN(c2nnc3ccccn23)C1 (stereo not given)
- RP-LC retention time: 598 s

SMILES: CCn1cc(-c2nc(C)c(C(=O)NCc3cccc(F)c3)s2)c2cccnc21
- RP-LC retention time: 947 s

SMILES: COc1ccc(/C=C/c2nc(Cn3c(C)nc4ccccc4c3=O)no2)cc1
- RP-LC retention time: 871 s

SMILES: CCOc1cc(C(=O)Nc2nc(-c3ccc(OC)cc3)c(C)s2)cc(OCC)c1OCC
- RP-LC retention time: 1360 s

SMILES: Cc1nc(C(=O)N2CCC[C@H]2Cc2nnc(-c3ccccc3)o2)c(-c2ccccc2F)s1
- RP-LC retention time: 1050 s

SMILES: COC(=O)c1c2c(nc3ccccc13)CCN(C(=O)Nc1ccccc1)C2
- RP-LC retention time: 743 s

SMILES: O=C(Nc1ccc(-n2cnnn2)cc1)C1CC(=O)N(c2ccccc2)C1 (stereo not given)
- RP-LC retention time: 662 s

SMILES: COc1ccc(Br)c(C(=O)N2CCc3[nH]cnc3C23CCCC3)c1
- RP-LC retention time: 648 s

SMILES: CCOCC(=O)N1CCC2(CCC2O)CC1 (stereo not given)
- RP-LC retention time: 598 s

SMILES: Cc1cc2c(=O)n(CC(=O)Nc3cccc(Cl)c3)ccc2s1
- RP-LC retention time: 832 s

SMILES: COC(=O)c1ccc(NS(=O)(=O)c2ccc3c(c2)C(=O)N(C)c2ncccc2O3)cc1
- RP-LC retention time: 881 s

SMILES: CCOC(=O)c1nc(Nc2cccc(OC)c2)c2ccccc2n1
- RP-LC retention time: 854 s

SMILES: COc1ccc(NC(=O)N2C[C@@H]3C[C@H](NS(=O)(=O)c4ccccc4)[C@H]2C3)c(OC)c1
- RP-LC retention time: 745 s

SMILES: CCCCNC(=O)Cn1nc2c(N3CCSCC3)nccn2c1=O
- RP-LC retention time: 728 s

SMILES: CCOc1ccc(NC(=O)CN2CCc3c(c(=O)c4cc(C)ccc4n3C)C2)cc1
- RP-LC retention time: 637 s

SMILES: O=C(CSc1ccc(N2CCC(C(=O)NC3CC3)CC2)nn1)NCc1ccc(F)cc1
- RP-LC retention time: 609 s

SMILES: CCOc1ccc(-n2ccn3cc(-c4cccc(Cl)c4)nc3c2=O)cc1
- RP-LC retention time: 947 s

SMILES: Cc1cc(F)ccc1NC(=O)c1c(O)c2cccnc2n(-c2ccc(F)cc2)c1=O
- RP-LC retention time: 1240 s

SMILES: Cn1ncc2c3ccccc3n(CC(=O)N3CCC(N4CCCCC4)CC3)c2c1=O
- RP-LC retention time: 613 s

SMILES: O=C(C1CCN(c2nc3ccc(-c4ccsc4)nc3s2)CC1)N1CCCC1
- RP-LC retention time: 893 s

SMILES: COc1ccc(CNC(=O)NCCOc2cc(C)cc(C)c2)cc1OC
- RP-LC retention time: 782 s

SMILES: Cn1nc(C2CCN(C(=O)C3CCC3)CC2)c2c1CCOC2
- RP-LC retention time: 659 s

SMILES: CCCNC(=O)Cn1nc2cc(-c3ccc(OC)cc3)nc(C)n2c1=O
- RP-LC retention time: 633 s

SMILES: CCOc1ccc(NC(=O)Cn2c(CC)nc3cc4c(cc32)OCCO4)cc1
- RP-LC retention time: 670 s

SMILES: O=C(NC1CC1)c1[nH]c2ccccc2c1N1CCCC1=O
- RP-LC retention time: 653 s

SMILES: CCOC(=O)C(C)(C)Sc1nnc(NC(=O)C2CCN(S(C)(=O)=O)CC2)s1
- RP-LC retention time: 721 s

SMILES: COc1cccc(N2CCN(C(=O)c3cn4ccccc4n3)CC2)c1
- RP-LC retention time: 644 s

SMILES: COc1ccccc1Nc1nc(-c2ccc(C)cc2)c(C)s1
- RP-LC retention time: 1210 s

SMILES: O=S(=O)(Cc1ccccc1)N1CCCCC1c1nc(-c2cccnc2)n[nH]1 (stereo not given)
- RP-LC retention time: 701 s

SMILES: CN(C(=O)c1ccc(-c2cnc(N3CCCC3)nc2)cc1)C1CCCCC1
- RP-LC retention time: 969 s

SMILES: O=C(CCC(=O)N1CCN(c2nc3cccnc3s2)CC1)N1CCCC1
- RP-LC retention time: 612 s

SMILES: CCOC(=O)c1ccc(NC(=O)C2CCCN2S(=O)(=O)c2cc(C(=O)OC)n(C)c2)cc1 (stereo not given)
- RP-LC retention time: 900 s

SMILES: COc1ccc(NC(=O)c2cnc(N3CCN(C(C)=O)CC3)nc2N)cc1
- RP-LC retention time: 601 s

SMILES: Cc1ccsc1C(=O)N1CCC2(CC1)NC(=O)N(Cc1ccccc1Cl)C2=O
- RP-LC retention time: 847 s

SMILES: CC(C)COc1cc(=O)n2c(c1C(=O)N1CCOCC1)CCCCC2
- RP-LC retention time: 656 s

SMILES: O=C(Nc1nccnc1C(=O)NC1CCCC1)c1ccccc1
- RP-LC retention time: 934 s
